# Laboratory results reported in US11589575B2, “Injectable preserving medium for preserving cells from placental blood, from bone marrow and from peripheral blood” (ETABLISSEMENT FRANCAIS DU SANG, priority 2015, dated 2023).
# Entries after “also recorded” stand apart in the source; their conditions may differ.
# System: placental blood CD34+ cells amplified ex vivo
# Assay: Preservation at +4° C. of ex vivo amplified placental blood CD34+ cells (TNC viability and clonogenic CFC/CFU yield)
# Assay type: cell-based, human
# Conditions: for preserving of the functionality (clonogenicity) of amplified cells: cells stored at +4° C.
# Experimental: The cells, after ex vivo expansion, are more fragile than the original CD34+ cells, and the maintaining thereof is most critical at +4° C. (Duchez et al, 2013, supra).
# Throughout all the studies leading to the formulation of the biological preserving medium, the assays were conducted on placental blood CD34+ cells derived from a bank with storage at −196° C. Each assay was performed on one 1 or more samples.
# The placental blood CD34+ cells were isolated with an immunomagnetic system, then frozen and banked at −196° C.
# After thawing, the placental blood CD34+ cells (20000/ml) were placed in culture in HP01 medium in the presence of SCF (Stem Cell Factor) 100 ng/ml, Flt3 (FMS-like tyrosine kinase-3) 100 ng/ml, G-CSF (Granulocyte Colony Stimulating Factor) 10 ng/ml, and thrombopoietin (TPO) 20 ng/ml at 37° C., 5% CO2 and 85% humidity. At mid-culture, the addition was made of HP01 culture medium with the cytokines (1/5 dilution) and culture continued up to 9 to 12 days (generally 10 days).
# After culture, 2.5 ml of cell suspension were transferred to 2.5 ml gas-impermeable polypropylene tubes and centrifuged at 430 g for 10 minutes at 18° C. The supernatant was fully removed (with about 50 μl of supernatant remaining on the cell residue). Then, 2.45 ml of preserving medium to be assayed (at ambient temperature) were added to the tube and the tube sealed with the stopper; the cells being replaced in suspension with successive upturning movements. The samples were left at ambient temperature for 1 to 3 hours. Finally, the tubes were placed flat at +4° C. for times generally of 48 h to 72 h. Assays were also conducted in gas-permeable PVC pouches for comparative studies and in gas-impermeable EVA pouches.
# Analyses were performed on the amplified cells: counting and viability of TNCs (Total Nucleated Cells), clonogenic assays, sometimes with counting and viability of CD34+ cells. After the period at +4° C. for the defined times (48 h and 72 h), the cell samples were assayed: counting and viability of TNCs and clonogenic assays (at times also counting and viability of CD34+ cells).
# The quantity of viable total nucleated cells remaining after storage at 4° C. was compared with the quantity of viable total nucleated cells at the end of culture, to obtain a recovery yield of viable cells. Similarly, the yield of CFCs (Colony Forming Cells) was calculated. The values obtained were used to evaluate the advantage of one or more compounds in the formulation and to identify the optimal concentration of these compounds. The values were compared with those obtained with the HP02 preserving medium (Duchez et al, 2013, supra).
Compound,preserving of the functionality (clonogenicity) of amplified cells,action throughout the assays on preservation of amplified cells (readout not further specified) (stored at +4° C.)
"O=C1O[C@H]([C@@H](O)CO)C(O)=C1O [vitamin C, Ascorbic acid]",lesser action,
"Cc1c(C)c2c(c(C)c1O)CC[C@@](C)(CCC[C@H](C)CCC[C@H](C)CCCC(C)C)O2 [vitamin E, Alpha-tocopherol]",the greatest action; also recorded: the most important action,effect close to or identical to the effect of Cernevit®
"CC1=C(/C=C/C(C)=C/C=C/C(C)=C/CO)C(C)(C)CCC1 [vitamin A, Retinol]",lesser action,
